# Laboratory results from patent publication US7528138B2, “Pyrazolo[1,5-a]pyrimidines useful as inhibitors of protein kinases” (Vertex Pharmaceuticals Incorporated, priority 2004, dated 2009).
# Legend:
# Format in all cases: biochemical
# [1] = target: c-Met (Homo sapiens, UniProt P08581); assay: c-Met Inhibition Assay, coupled enzyme system; settings: enzyme inhibition data (Ki), Table 11
# In short: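 Pyruvate kinase/lactate dehydrogenase-coupled NADH assay in HEPES pH 7.5 with 80 nM c-Met, 200 μM ATP and 10 μM polyGluTyr at 30° C. Compound (0.006–12.5 μM final, 12-point) preincubated 10 min before ATP start; rates over 10 min gave Ki.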
# [2] = target: T1, Aurora-2 (Homo sapiens, UniProt O14965); assay: Aurora-A (Aurora-2) Inhibition Assay, coupled enzyme assay; settings: enzyme inhibition data (Ki), Table 11; read-out: AurA Ki
# T1 sequence (O14965 1-403): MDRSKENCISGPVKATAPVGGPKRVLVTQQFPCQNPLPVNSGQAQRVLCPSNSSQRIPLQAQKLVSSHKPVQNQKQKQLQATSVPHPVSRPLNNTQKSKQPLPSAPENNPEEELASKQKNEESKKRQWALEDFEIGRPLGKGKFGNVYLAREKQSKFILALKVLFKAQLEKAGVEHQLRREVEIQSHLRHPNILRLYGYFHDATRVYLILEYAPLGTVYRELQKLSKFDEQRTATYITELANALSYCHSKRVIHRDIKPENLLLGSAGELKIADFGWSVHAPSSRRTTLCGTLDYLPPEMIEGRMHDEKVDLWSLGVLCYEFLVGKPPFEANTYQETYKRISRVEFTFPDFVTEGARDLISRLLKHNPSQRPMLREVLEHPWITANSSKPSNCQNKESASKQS
# Protocol: Compounds are screened for their ability to inhibit Aurora-2 using a standard coupled enzyme assay (Fox et al., Protein Sci., (1998) 7, 2249). Assays are carried out in a mixture of 100 mM Hepes (pH7.5), 10 mM MgCl2, 1 mM DTT, 25 mM NaCl, 2.5 mM phosphoenolpyruvate, 300 μM NADH, 30 μg/ml pyruvate kinase and 10 μg/ml lactate dehydrogenase. Final substrate concentrations in the assay are 400 μM ATP (Sigma Chemicals) and 570 μM peptide (Kemptide, American Peptide, Sunnyvale, Calif.). Assays are carried out at 30° C. and in the presence of 40 nM Aurora-2.
# (§1) An assay stock buffer solution is prepared containing all of the reagents listed above, with the exception of Aurora-2 and the test compound of interest. 55 μl of the stock solution is placed in a 96 well plate followed by addition of 2 μl of DMSO stock containing serial dilutions of the test compound (typically starting from a final concentration of 7.5 μM). The plate is preincubated for 10 minutes at 30° C. and the reaction initiated by addition of 10 μl of Aurora-2. Initial reaction rates are determined with a Molecular Devices SpectraMax Plus plate reader over a 10 minute time course. IC50 and Ki data are calculated from non-linear regression analysis using the Prism software package (GraphPad Prism version 3.0cx for Macintosh, GraphPad Software, San Diego Calif., USA).
# [3] = target: T2, Rlk (Homo sapiens, UniProt P42681); assay: RLK Inhibition Assay, coupled enzyme assay; settings: enzyme inhibition data (Ki), Table 11
# T2 sequence (P42681 1-527): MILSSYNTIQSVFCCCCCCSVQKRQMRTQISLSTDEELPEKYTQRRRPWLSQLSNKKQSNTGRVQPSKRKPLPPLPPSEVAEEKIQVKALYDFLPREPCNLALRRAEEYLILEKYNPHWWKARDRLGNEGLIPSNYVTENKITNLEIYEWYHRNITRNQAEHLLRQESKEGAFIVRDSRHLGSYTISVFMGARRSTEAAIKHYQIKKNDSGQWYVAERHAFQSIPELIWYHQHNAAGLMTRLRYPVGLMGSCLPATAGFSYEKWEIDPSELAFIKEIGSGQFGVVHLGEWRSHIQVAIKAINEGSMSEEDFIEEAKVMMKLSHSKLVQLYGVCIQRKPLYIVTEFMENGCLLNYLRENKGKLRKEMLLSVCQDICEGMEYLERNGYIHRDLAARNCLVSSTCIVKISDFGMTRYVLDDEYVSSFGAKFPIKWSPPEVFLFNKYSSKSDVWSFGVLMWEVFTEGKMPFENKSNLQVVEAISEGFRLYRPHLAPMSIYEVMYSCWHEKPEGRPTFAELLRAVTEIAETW
# Protocol: Compounds are screened for their ability to inhibit Rlk using a standard coupled enzyme assay (Fox et al., Protein Sci., (1998) 7, 2249). Assays are carried out in a mixture of 20 mM MOPS (pH 7.0), 10 mM MgCl2, 0.1% BSA and 1 mM DTT. Final substrate concentrations in the assay are 100 μM ATP (Sigma Chemicals) and 10 μM peptide (Poly Glu:Tyr 4:1). Assays are carried out at 30° C. and in the presence of 40 nM Rlk. Final concentrations of the components of the coupled enzyme system are 2.5 mM phosphoenolpyruvate, 300 μM NADH, 30 μg/ml pyruvate kinase and 10 μg/ml lactate dehydrogenase.
# as §1, with “of ATP” for “of Aurora-2”, “interest. 60” for “interest. 55”, “of 5” for “of 10”, “of ATP.” for “of Aurora-2.”
# c-Met, sequence (P08581 25-1390): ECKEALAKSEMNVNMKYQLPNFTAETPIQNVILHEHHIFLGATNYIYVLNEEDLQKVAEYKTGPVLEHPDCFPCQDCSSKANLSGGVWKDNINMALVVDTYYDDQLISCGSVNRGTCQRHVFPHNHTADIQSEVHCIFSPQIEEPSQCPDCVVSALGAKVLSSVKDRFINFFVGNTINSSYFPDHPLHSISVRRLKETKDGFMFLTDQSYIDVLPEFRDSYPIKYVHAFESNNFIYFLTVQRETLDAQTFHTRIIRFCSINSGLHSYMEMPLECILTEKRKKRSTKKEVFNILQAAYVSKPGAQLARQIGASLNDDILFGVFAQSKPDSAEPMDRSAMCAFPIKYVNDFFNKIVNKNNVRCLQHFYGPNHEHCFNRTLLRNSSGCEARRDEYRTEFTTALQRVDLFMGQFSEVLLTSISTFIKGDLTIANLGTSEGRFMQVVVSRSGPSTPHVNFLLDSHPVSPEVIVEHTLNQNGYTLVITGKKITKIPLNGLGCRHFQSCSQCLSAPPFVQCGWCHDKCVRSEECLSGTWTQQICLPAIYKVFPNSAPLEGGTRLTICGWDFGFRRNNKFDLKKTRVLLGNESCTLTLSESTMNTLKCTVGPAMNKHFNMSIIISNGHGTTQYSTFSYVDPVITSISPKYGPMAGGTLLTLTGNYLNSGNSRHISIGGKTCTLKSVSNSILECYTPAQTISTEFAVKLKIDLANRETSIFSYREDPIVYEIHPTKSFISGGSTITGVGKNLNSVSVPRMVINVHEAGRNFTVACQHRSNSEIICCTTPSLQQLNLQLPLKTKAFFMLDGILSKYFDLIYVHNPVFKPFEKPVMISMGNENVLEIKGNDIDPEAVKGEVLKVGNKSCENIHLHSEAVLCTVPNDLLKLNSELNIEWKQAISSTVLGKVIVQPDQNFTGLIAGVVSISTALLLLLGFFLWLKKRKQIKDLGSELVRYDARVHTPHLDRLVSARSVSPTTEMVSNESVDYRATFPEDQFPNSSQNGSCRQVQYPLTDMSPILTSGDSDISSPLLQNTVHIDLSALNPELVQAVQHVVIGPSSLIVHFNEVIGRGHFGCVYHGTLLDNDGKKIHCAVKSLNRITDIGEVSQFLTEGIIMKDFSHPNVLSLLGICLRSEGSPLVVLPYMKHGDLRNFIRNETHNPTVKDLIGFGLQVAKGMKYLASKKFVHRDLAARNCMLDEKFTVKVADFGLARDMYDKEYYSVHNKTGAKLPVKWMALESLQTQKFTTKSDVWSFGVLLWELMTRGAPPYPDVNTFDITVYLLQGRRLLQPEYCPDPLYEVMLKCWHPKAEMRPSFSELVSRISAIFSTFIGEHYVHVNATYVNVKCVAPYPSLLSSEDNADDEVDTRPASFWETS
Structure (SMILES),Ki [1] [nM],Ki [2] [nM],Ki [3] [nM]
CNCCCN(C)C(=O)c1ccc(-c2cnc3c(-c4ccccn4)c(N)nn3c2)cc1 [Compound V-191],< 500,< 500,< 500
NCc1ccc(-c2cnc3c(-c4ccccn4)c(N)nn3c2)cc1 [Compound V-195],< 500,< 500,500 to 5000
CN(C)Cc1cccc(-c2cnc3c(-c4ccccn4)c(N)nn3c2)c1 [Compound V-215],< 500,500 to 5000,500 to 5000
Nc1nn2cc(-c3cccc(N4CCNCC4)c3)cnc2c1-c1ccccn1 [Compound V-222],< 500,< 500,500 to 5000
NC1NN2C=C(c3cccc(CN4CCCNCC4)c3)C=NC2=C1c1ccccn1 (centres unmarked) [Compound V-228],< 500,500 to 5000,500 to 5000
NC1CCN(Cc2cccc(C3=CN4NC(N)C(c5ccccn5)=C4N=C3)c2)CC1 (centres unmarked) [Compound V-229],< 500,500 to 5000,500 to 5000
CNCCCN(C)Cc1ccc(-c2cnc3c(-c4ccccn4)c(N)nn3c2)cc1 [Compound V-230],< 500,< 500,< 500
Nc1nn2cc(-c3ccc(CNC4CCNCC4)cc3)cnc2c1-c1ccccn1 [Compound V-232],< 500,500 to 5000,500 to 5000
Nc1nn2cc(-c3ccc(CN4CC[C@H](N)C4)cc3)cnc2c1-c1ccccn1 [Compound V-233],< 500,< 500,500 to 5000
CNCc1ccc(-c2cnc3c(-c4ccccn4)c(N)nn3c2)cc1 [Compound V-236],< 500,< 500,500 to 5000
Nc1nn2cc(-c3ccncc3)cnc2c1-c1cc(Nc2ccccc2)ncn1 [Compound V-241],< 500,< 500,
COc1ccccc1Nc1cc(-c2c(N)nn3cc(-c4ccncc4)cnc23)ncn1 [Compound V-242],< 500,< 500,
CC(C)CN(C)c1cc(-c2c(N)nn3cc(-c4ccncc4)cnc23)ncn1 [Compound V-243],< 500,< 500,
CCCN(CC)c1cc(-c2c(N)nn3cc(-c4ccncc4)cnc23)ncn1 [Compound V-244],< 500,< 500,

# Next, values leading:
Ki [1] [nM],Ki [2] [nM],Ki [3] [nM],Structure (SMILES)
< 500,< 500,< 500,CN(C)CCN(C)C(=O)c1ccc(-c2cnc3c(-c4ccccn4)c(N)nn3c2)cc1 [Compound V-188]
< 500,500 to 5000,500 to 5000,NCc1cccc(-c2cnc3c(-c4ccccn4)c(N)nn3c2)c1 [Compound V-202]
< 500,< 500,500 to 5000,CN(C)Cc1ccc(-c2cnc3c(-c4ccccn4)c(N)nn3c2)cc1 [Compound V-214]
< 500,< 500,< 500,Nc1nn2cc(-c3ccc(CN4CCNCC4)cc3)cnc2c1-c1ccccn1 [Compound V-217]
< 500,500 to 5000,500 to 5000,Nc1nn2cc(-c3cccc(CN4CCNCC4)c3)cnc2c1-c1ccccn1 [Compound V-223]
< 500,500 to 5000,500 to 5000,NC1NN2C=C(c3cccc(CN4CC[C@H](N)C4)c3)C=NC2=C1c1ccccn1 (some centres unmarked) [Compound V-227]
< 500,< 500,500 to 5000,Nc1nn2cc(-c3ccc(CN4CC[C@@H](N)C4)cc3)cnc2c1-c1ccccn1 [Compound V-231]
< 500,< 500,500 to 5000,Nc1nn2cc(-c3ccc(CN4CCC(N)CC4)cc3)cnc2c1-c1ccccn1 [Compound V-234]
